According to ChEMBL document CHEMBL5356971, “Optimization of the Antibacterial Spectrum and the Developability Profile of the Novel-Class Natural Product Corramycin” (J Med Chem, 2023):

What was measured:
Escherichia coli [1] = assay: Antibacterial activity against Escherichia coli ATCC 35218 assessed as reduction in microbial growth incubated for 20 to 22 hrs by CLSI based analysis; assay type: functional; conditions: time 20-22 hrs
[2] = Metabolic stability in mouse kidney assessed as parent compound remaining measured after 4 hrs by UPLC-MS analysis; assay type: ADME, tissue-based; conditions: read-out: Stability
Escherichia coli [3] = assay: Antibacterial activity against Escherichia coli ATCC 35218 harboring SbmA assessed as reduction in microbial growth incubated for 20 to 22 hrs by CLSI based analysis; assay type: functional; conditions: time 20-22 hrs
Klebsiella pneumoniae [4] = assay: Antibacterial activity against Klebsiella pneumoniae ATCC 13883 harboring SbmA assessed as reduction in microbial growth incubated for 20 to 22 hrs by CLSI based analysis; assay type: functional; conditions: time 20-22 hrs
Klebsiella pneumoniae [5] = assay: Antibacterial activity against wild type Klebsiella pneumoniae ATCC 13883 assessed as reduction in microbial growth incubated for 20 to 22 hrs by CLSI based analysis; assay type: functional; conditions: time 20-22 hrs
Acinetobacter baumannii [6] = assay: Antibacterial activity against wild type Acinetobacter baumannii ATCC 19606 assessed as reduction in microbial growth incubated for 20 to 22 hrs by CLSI based analysis; assay type: functional; conditions: time 20-22 hrs
[7] = Metabolic stability in mouse kidney assessed as parent compound remaining measured after 1 hrs by UPLC-MS analysis; assay type: ADME, tissue-based; conditions: read-out: Stability
Escherichia coli [8] = assay: Antibacterial activity against wild type Escherichia coli ATCC 35218 assessed as reduction in microbial growth incubated for 20 to 22 hrs by CLSI based analysis; assay type: functional; conditions: time 20-22 hrs
[9] = Metabolic stability in mouse lung assessed as parent compound remaining measured after 1 hrs by UPLC-MS analysis; assay type: ADME, tissue-based; conditions: mouse lung, read-out: Stability
[10] = Metabolic stability in mouse lung assessed as parent compound remaining measured after 4 hrs by UPLC-MS analysis; assay type: ADME, tissue-based; conditions: mouse lung, read-out: Stability
Acinetobacter baumannii [11] = assay: Antibacterial activity against Acinetobacter baumannii ATCC 19606 assessed as reduction in microbial growth incubated for 20 to 22 hrs by CLSI based analysis; assay type: functional; conditions: time 20-22 hrs
Klebsiella pneumoniae [12] = assay: Antibacterial activity against Klebsiella pneumoniae ATCC 13883 assessed as reduction in microbial growth incubated for 20 to 22 hrs by CLSI based analysis; assay type: functional; conditions: time 20-22 hrs

Compound	MIC (Escherichia coli [1])	remaining at 4 h [2]	MIC (Escherichia coli [3])	MIC (Klebsiella pneumoniae [4])	MIC (Klebsiella pneumoniae [5])	MIC (Acinetobacter baumannii [6])	remaining at 1 h [7]	MIC (Escherichia coli [8])	remaining at 1 h [9]	remaining at 4 h [10]	MIC (Acinetobacter baumannii [11])	MIC (Klebsiella pneumoniae [12])
CO[C@@H](CNC(=O)[C@H](NC(=O)[C@H](O)[C@H](C)O)[C@H](O)c1cncn1C)[C@H](O)[C@H](O)C(=O)N(C)[C@@H](Cc1ccccc1)C(=O)O	> 64 µg/mL											
CO[C@@H](CNC(=O)[C@H](NC(=O)[C@H](O)[C@H](C)O)[C@H](O)c1cncn1C)[C@H](O)[C@H](O)C(=O)N(C)[C@@H](Cc1ccccc1)C(=O)N[C@@H](C)C(=O)N[C@H](C(=O)N[C@@H](CO)C(=O)N[C@H](C(=O)N[C@H](C(=O)N[C@@H](CO)C(=O)NCc1cc(=O)c(O)cn1O)C(C)(C)C)C(C)(C)O)C(C)(C)O		75%	1 µg/mL	> 32 µg/mL	1 µg/mL	1 µg/mL	85%	0.06 µg/mL	91%	85%		
CO[C@@H](CNC(=O)[C@H](NC(=O)[C@H](O)[C@H](C)O)[C@H](O)c1cncn1C)[C@H](O)[C@H](O)C(=O)N(C)[C@@H](Cc1ccccc1)C(=O)NCC(=O)N[C@H](C(=O)N[C@@H](CO)C(=O)N[C@H](C(=O)N[C@H](C(=O)N[C@@H](CO)C(=O)N[C@@H](CN)C(=O)NCc1cc(=O)c(O)cn1O)C(C)(C)C)C(C)(C)O)C(C)(C)O		83%	4 µg/mL	> 32 µg/mL	0.25 µg/mL	0.25 µg/mL	93%	0.02 µg/mL	87%	75%		
CO[C@@H](CNC(=O)[C@H](NC(=O)[C@H](O)[C@H](C)O)[C@H](O)c1cncn1C)[C@H](O)[C@H](O)C(=O)N(C)[C@@H](Cc1ccccc1)C(=O)NCC(=O)N[C@H](C(=O)N[C@@H](CO)C(=O)N[C@H](C(=O)N[C@H](C(=O)N[C@@H](CO)C(=O)N[C@H](CCC(=O)NCc1cc(=O)c(O)cn1O)C(=O)O)C(C)(C)C)C(C)(C)O)C(C)(C)O		67%	1 µg/mL	32 µg/mL	0.03 µg/mL	0.5 µg/mL	100%	< 0.01 µg/mL	89%	77%		
CO[C@@H](CNC(=O)[C@H](NC(=O)[C@H](O)[C@H](C)O)[C@H](O)c1cncn1C)[C@H](O)[C@H](O)C(=O)N(C)[C@@H](Cc1ccccc1)C(=O)NCC(=O)N[C@H](C(=O)N[C@@H](CO)C(=O)N[C@@H](C)C(=O)N[C@@H](CC(C)C)C(=O)N[C@@H](CO)C(=O)O)C(C)(C)O	32 µg/mL										> 32 µg/mL	64 µg/mL
CO[C@@H](CNC(=O)[C@H](NC(=O)[C@H](O)[C@H](C)O)[C@H](O)c1cncn1C)[C@H](O)[C@H](O)C(=O)N(C)[C@@H](Cc1ccccc1)C(=O)NCC(=O)N[C@H](C(=O)N[C@@H](CO)C(=O)N[C@H](C(=O)N[C@H](C(=O)N[C@@H](CO)C(=O)NCc1cc(=O)c(O)cn1O)C(C)(C)C)C(C)(C)O)C(C)(C)O		84%	0.5 µg/mL	> 32 µg/mL	0.03 µg/mL	0.5 µg/mL	99%	< 0.01 µg/mL	84%	73%		
CO[C@@H](CNC(=O)[C@H](NC(=O)[C@H](O)[C@H](C)O)[C@H](O)c1cncn1C)[C@H](O)[C@H](O)C(=O)N(C)[C@@H](Cc1ccc(F)cc1)C(=O)NCC(=O)N[C@H](C(=O)N[C@@H](CO)C(=O)N[C@H](C(=O)N[C@H](C(=O)N[C@@H](CO)C(=O)NCc1ccc(O)c(O)c1)C(C)(C)C)C(C)(C)O)C(C)(C)O		0%			0.25 µg/mL	0.5 µg/mL	6%	0.03 µg/mL	0%	0%		
CO[C@@H](CNC(=O)[C@H](NC(=O)[C@H](O)[C@H](C)O)[C@H](O)c1cncn1C)[C@H](O)[C@H](O)C(=O)N(C)[C@@H](Cc1ccccc1)C(=O)N[C@@H](C)C(=O)N[C@H](C(=O)N[C@@H](CO)C(=O)N[C@H](C(=O)N[C@@H](CC(C)C)C(=O)N[C@@H](CO)C(=O)O)C(C)(C)O)C(C)(C)O	8 µg/mL										> 32 µg/mL	> 32 µg/mL
CO[C@@H](CNC(=O)[C@H](NC(=O)[C@H](O)[C@H](C)O)[C@H](O)c1cncn1C)[C@H](O)[C@H](O)C(=O)N(C)[C@@H](Cc1ccccc1)C(=O)NCC(=O)N[C@H](C(=O)N[C@@H](CO)C(=O)N[C@H](C(=O)O)C(C)(C)O)C(C)(C)O	> 64 µg/mL											
CO[C@@H](CNC(=O)[C@H](NC(=O)[C@H](O)[C@H](C)O)[C@H](O)c1cncn1C)[C@H](O)[C@H](O)C(=O)N(C)[C@@H](Cc1ccc(F)cc1)C(=O)NCC(=O)N[C@H](C(=O)N[C@@H](CO)C(=O)N[C@H](C(=O)N[C@H](C(=O)N[C@@H](CO)C(=O)NCc1cccc(O)c1O)C(C)(C)C)C(C)(C)O)C(C)(C)O		0%			0.5 µg/mL	0.5 µg/mL	11%	0.06 µg/mL	0%	0%		
CO[C@@H](CNC(=O)[C@H](NC(=O)[C@H](O)[C@H](C)O)[C@H](O)c1cncn1C)[C@H](O)[C@H](O)C(=O)N(C)[C@@H](Cc1ccc(F)cc1)C(=O)NCC(=O)N[C@H](C(=O)N[C@@H](CO)C(=O)N[C@H](C(=O)N[C@H](C(=O)N[C@@H](CCC(=O)NCc1cc(=O)c(O)cn1O)C(=O)O)C(C)(C)C)C(C)(C)O)C(C)(C)O		101%	0.25 µg/mL	> 32 µg/mL	0.12 µg/mL	0.25 µg/mL	92%	0.01 µg/mL	101%	86%		
CO[C@@H](CNC(=O)[C@H](NC(=O)[C@H](O)[C@H](C)O)[C@H](O)c1cncn1C)[C@H](O)[C@H](O)C(=O)N(C)[C@@H](Cc1ccccc1)C(=O)NCC(=O)N[C@H](C(=O)N[C@@H](CO)C(=O)N[C@H](C(=O)N[C@@H](CC(C)C)C(=O)N[C@@H](CO)C(=O)N[C@@H](CCC(=O)NCc1cc(=O)c(O)cn1O)C(=O)O)C(C)(C)O)C(C)(C)O		0%	0.12 µg/mL	8 µg/mL	0.25 µg/mL	0.5 µg/mL	22%	0.03 µg/mL	1%	0%		
CO[C@@H](CNC(=O)[C@H](NC(=O)[C@H](O)[C@H](C)O)[C@H](O)c1cncn1C)[C@H](O)[C@H](O)C(=O)N(C)[C@@H](Cc1ccccc1)C(=O)NCC(=O)N[C@H](C(=O)N[C@@H](CO)C(=O)N[C@H](C(=O)N[C@@H](CC(C)C)C(=O)O)C(C)(C)O)C(C)(C)O	32 µg/mL											
CO[C@@H](CNC(=O)[C@H](NC(=O)[C@H](O)[C@H](C)O)[C@H](O)c1cncn1C)[C@H](O)[C@H](O)C(=O)N(C)[C@@H](Cc1ccccc1)C(=O)NCC(=O)N[C@H](C(=O)N[C@@H](CO)C(=O)O)C(C)(C)O	> 64 µg/mL											
CC[C@H](C)[C@H](NC(=O)[C@@H](NC(=O)[C@H](CO)NC(=O)[C@@H](NC(=O)CNC(=O)[C@H](Cc1ccccc1)N(C)C(=O)[C@@H](O)[C@@H](O)[C@H](CNC(=O)[C@H](NC(=O)[C@H](O)[C@H](C)O)[C@H](O)c1cncn1C)OC)C(C)(C)O)C(C)(C)O)C(=O)N[C@@H](CO)C(=O)N[C@@H](CCC(=O)NCc1cc(=O)c(O)cn1O)C(=O)O		42%	0.25 µg/mL	32 µg/mL	0.12 µg/mL	0.5 µg/mL	84%	0.03 µg/mL	73%	33%		
CO[C@@H](CNC(=O)[C@H](NC(=O)[C@H](O)[C@H](C)O)[C@H](O)c1cncn1C)[C@H](O)[C@H](O)C(=O)N(C)[C@@H](Cc1ccc(F)cc1)C(=O)NCC(=O)N[C@H](C(=O)N[C@@H](CO)C(=O)N[C@H](C(=O)N[C@H](C(=O)N[C@@H](CCC(=O)NCc1cc(=O)c(O)cn1O)C(=O)NCCN)C(C)(C)C)C(C)(C)O)C(C)(C)O		41%	4 µg/mL	> 32 µg/mL	0.12 µg/mL	1 µg/mL	61%	0.01 µg/mL	88%	75%		
